Measurements reported in patent publication US20090030037A1, “Sustained Release Formulation and Dosing Schedules of Leukotriene Synthesis Inhibitor for Human Therapy” (deCODE Genetics ehf., priority 2005, published 2009).

Columns and labels:
[1] = system: LDL cholesterol; assay: Study DG-031-201: LDL cholesterol; type: in vivo, human; conditions: highest dose of DG-031
Description: Patients who met the study eligibility criteria were enrolled and randomized into 3 different dose-level groups: (1) 64 patients on 250 mg/day therapy with DG-031 (250 mg q.d.), vs placebo; (2) 64 patients on 500 mg/day therapy with DG-031 (250 mg b.i.d.) vs placebo; and (3) 63 patients on 750 mg/day therapy with DG-031 (250 mg t.i.d.) vs placebo. […] All patients received 3 tablets per day. Treatment periods, 4 weeks in duration each, were separated by a 2-week washout period. The placebo tablets were identical in shape, color, form and taste to the active tablets except that they contained no active drug ingredients. Treatment with DG-031 or placebo was in addition to the subject's standard care, including all medications and treatment plan as prescribed by the subject's cardiologist prior to enrolment. A total of 191 subjects were enrolled, with 172 completing all 8 visits or 8 patients short of the target of 180 patients.
All data were analyzed according to a pre-established statistical analysis plan (SAP) and by intention-to-treat (ITT). Each arm of the study, as well as pooled sets (combining dose levels), was considered for the primary analysis. […] The difference between DG-031 and placebo treatment was the primary outcome, assessed separately for each of the biomarkers. […]

[2] = system: LTB4; assay: Study DG-031-204: serum LTB4; type: in vivo, human; conditions: after 4 weeks
Description: An additional single site, open label study was carried out to obtain biomarker and safety data on additional DG-031 doses (i.e., 1000 mg and 1500 mg). This study examined the safety, tolerability and dose-related effects of DG-031 on inflammatory biomarkers including: LTB4, hsCRP, and MPO. A total of 119 patients with a prior history of CAD and MI were randomized to receive either 1000 mg DG-031 (500 mg BID) or 1500 mg DG-031 (500 mg TID) daily for 4-6 weeks. Treatment with DG-031 in addition to the subject's standard care, medication, and treatment, was prescribed by the patient's cardiologist. A majority of the subjects received statin therapy before, during and after the study. Follow-up assessments were performed 2 weeks after the end of study drug administration.
The biomarkers were analyzed as described in Example 1. Statistical analysis of the data was carried out using a one-sample t-test on change from baseline with a two-sided nominal significance level of 0.050. […]
(§1) Serum was collected weekly for determination of LTB4 concentration in response to the treatment with DG-031. […] Stimulated LTB4 effects measured in study DG-031-204, as shown in the raw data set out in Table 12, appear consistent with projections from the exposure-response analysis based on data from studies DG-031-201 and DG-031-203. […]

[3] = system: LTB4; assay: Study DG-031-204: ionomycin-stimulated LTB4 in whole blood; type: in vivo, human; conditions: for Stimulated LTB4 (% change from baseline, whole blood, WBC corrected, 15 minute): after 4 weeks
Description: Briefly, the cell pellets from the Ficoll gradient were harvested and the red blood cells were subsequently lysed in 0.165 M NH4CL for 10 minutes on ice. After washing with PBS, neutrophils were counted and plated at 2×10^6 cells/ml in 4 ml cultures of 15% Fetal calf serum (FCS) (GIBCO BRL) in RPMI-1640 (GIBCO BRL). The cells were then stimulated with maximum effective concentration of ionomycin (1 μM). At 0, 15, 30, 60 minutes post ionomycin addition 600 μl of culture medium was aspirated and stored at −80° C. for the measurement of LTB4 release as described below. The cells were maintained at 37° C. in a humidified atmosphere of 5% CO2/95% air. All samples were treated with indomethasine (1 μM) to block the cyclooxygenase enzyme. The experimental conditions are described above.
LTB4 Immunoassay Assay Design was used to quantitate LTB4 concentration in supernatant from cultured ionomycin stimulated neutrophils. The assay used is based on the competitive binding technique in which LTB4 present in the testing samples (200 μl) competes with a fixed amount of alkaline phosphatase-labelled LTB4 for sites on a rabbit polyclonal antibody. During the incubation, the polyclonal Ab becomes bound to a goat anti-rabbit Ab coated onto the microplates. Following a wash to remove excess conjugate and unbound sample, a substrate solution is added to the wells to determine the bound enzyme activity. The color development is stopped and the absorbance is read at 405 nm. The intensity of the color is inversely proportional to the concentration of LTB4 in the sample. Each LTB4 measurement using the LTB4 Immunoassay, was done in duplicate. […]
The biomarkers were analyzed as described in Example 1. […]
as §1

[4] = healthy volunteers, total daily dose 100-1000 mg, less than 14 days; cited from earlier work

For `O=C(O)[C@@H](c1ccc(OCc2ccc3ccccc3n2)cc1)C1CCCC1` [DG-031, (R)-(+)-alpha-cyclopentyl-4-(2-quinolinylmethoxy)-Benzeneacetic acid], the “Increase in LDL cholesterol” value [1] was 8%, the “Serum LTB4 (% change from baseline)” value ([2]; 1000 mg (500 mg BID)) was −73% and the “Serum LTB4 (% change from baseline)” value ([2]; 1500 mg (500 mg TID)) was −50%. For the same compound, the “Reduction of LTB4 levels, ionophore-stimulation assay” value ([3]; 500 mg BID) was 35%, the “Stimulated LTB4 (% change from baseline, whole blood, WBC corrected, 15 minute)” value ([3]; 1000 mg (500 mg BID)) was −44% and the “Stimulated LTB4 (% change from baseline, whole blood, WBC corrected, 15 minute)” value ([3]; 1500 mg (500 mg TID)) was −28%. The Safety and tolerability [4] was “safe and well tolerated”.
